Our source for the Ki values is US8829011B2 (Janssen Pharmaceutica NV, priority 2008, dated 2014).

Assay [1] deals with T1, human recombinant 5-HT2B receptor (Homo sapiens, UniProt P41595).
T1 construct: expressed in transfected cells; host or cells: CHO
Nature of the assay: Affinity for 5-HT2B receptor binding sites (competitive radioligand binding, [3H]mesulergine). The settings on record: membranes of CHO with h5-HT2B, * = tested as hydrochloride salt. The method, then:
(§1) Stock drug solutions (10 mM) were prepared in DMSO (the final assay concentration of DMSO not exceeding 0.4%). Drug dilutions were prepared in assay buffer.
(§2) Sigmoidal inhibition curves were generated and fitted by nonlinear regression analysis (GraphPad Prism).
(§3) 2. Affinity for 5HT2 Receptor Binding Sites
(§4) Receptor binding was performed using the human recombinant 5-HT2A (GB: X57830), 5-HT2B (GB: Z36748) and 5-HT2C (GB: M81778) receptors. The affinity of the compounds for the 3 different human 5-HT2 receptor subtypes was evaluated by competitive radioligand binding assays using [^3H]ketanserin (h5-HT2A) or [^3H]mesulergine (h5-HT2B and h5-HT2C). The assays were performed on membranes prepared from NIH3T3 stably transfected with h5-HT2A or CHO stably transfected with h5-HT2B and h5-HT2C.

For assay [2], the target named is T2, human recombinant 5-HT2A receptor (Homo sapiens, UniProt P28223).
T2 construct: expressed in transfected cells; host or cells: NIH3T3
Nature of the assay: Affinity for 5-HT2A receptor binding sites (competitive radioligand binding, [3H]ketanserin). Conditions: membranes of NIH3T3 with h5-HT2A, * = tested as hydrochloride salt. The method, then:
as §1, §2, §3, §4

The target of assay [3] is T3, human recombinant 5-HT2C receptor (Homo sapiens, UniProt P28335).
T3 construct: expressed in transfected cells; host or cells: CHO
T3 sequence (P28335 33-458): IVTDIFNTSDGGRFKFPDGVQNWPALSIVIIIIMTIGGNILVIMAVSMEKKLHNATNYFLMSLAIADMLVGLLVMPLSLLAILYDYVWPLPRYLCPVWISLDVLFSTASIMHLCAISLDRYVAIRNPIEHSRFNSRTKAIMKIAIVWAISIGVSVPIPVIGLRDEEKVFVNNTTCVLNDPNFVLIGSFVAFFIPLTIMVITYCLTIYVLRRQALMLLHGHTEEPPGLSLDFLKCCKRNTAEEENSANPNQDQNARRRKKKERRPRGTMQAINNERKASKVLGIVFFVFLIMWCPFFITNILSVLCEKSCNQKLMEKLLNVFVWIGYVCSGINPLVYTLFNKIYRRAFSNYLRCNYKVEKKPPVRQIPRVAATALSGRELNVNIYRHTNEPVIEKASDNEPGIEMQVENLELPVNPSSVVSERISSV
Nature of the assay: Affinity for 5-HT2C receptor binding sites (competitive radioligand binding, [3H]mesulergine). Conditions: membranes of CHO with h5-HT2C, * = tested as hydrochloride salt. As to the method:
as §1, §2, §3, §4

Assay [4] addresses T4, human recombinant 5-HT6 receptor (Homo sapiens, UniProt P50406).
T4 construct: expressed in transfected cells; host or cells: HEK-293
The assay can be described thus: Affinity for 5-HT6 receptor binding sites (competitive radioligand binding, [3H]LSD). The settings on record: membranes of HEK-293 with h5-HT6, * = tested as hydrochloride salt. The method, then: as §1, §2
3. Affinity for 5-HT6 Receptor Binding Sites
Receptor binding was performed using the human recombinant 5-HT6 (GB: BC0794995) receptor. The affinity of the compounds for the human 5-HT6 receptor was evaluated by competitive radioligand binding assays using [^3H]LSD. The assays were performed on membranes prepared from HEK-293 stably transfected with h5-HT6. Non-specific binding was estimated in the presence of 1 μM clozapine.

T2 sequence (P28223 whole entry): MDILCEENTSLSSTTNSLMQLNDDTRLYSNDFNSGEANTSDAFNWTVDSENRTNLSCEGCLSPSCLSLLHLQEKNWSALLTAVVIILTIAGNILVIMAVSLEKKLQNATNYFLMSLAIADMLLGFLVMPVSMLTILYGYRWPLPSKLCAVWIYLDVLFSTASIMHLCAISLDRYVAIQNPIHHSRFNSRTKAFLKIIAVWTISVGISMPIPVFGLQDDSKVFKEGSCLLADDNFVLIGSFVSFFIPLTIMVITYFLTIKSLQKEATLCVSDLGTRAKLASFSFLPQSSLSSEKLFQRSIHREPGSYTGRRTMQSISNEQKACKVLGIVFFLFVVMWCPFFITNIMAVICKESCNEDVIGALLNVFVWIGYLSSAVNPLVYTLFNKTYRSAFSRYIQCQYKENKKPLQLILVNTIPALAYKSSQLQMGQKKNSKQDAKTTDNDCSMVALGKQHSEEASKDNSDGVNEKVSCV
T1 sequence (P41595 whole entry): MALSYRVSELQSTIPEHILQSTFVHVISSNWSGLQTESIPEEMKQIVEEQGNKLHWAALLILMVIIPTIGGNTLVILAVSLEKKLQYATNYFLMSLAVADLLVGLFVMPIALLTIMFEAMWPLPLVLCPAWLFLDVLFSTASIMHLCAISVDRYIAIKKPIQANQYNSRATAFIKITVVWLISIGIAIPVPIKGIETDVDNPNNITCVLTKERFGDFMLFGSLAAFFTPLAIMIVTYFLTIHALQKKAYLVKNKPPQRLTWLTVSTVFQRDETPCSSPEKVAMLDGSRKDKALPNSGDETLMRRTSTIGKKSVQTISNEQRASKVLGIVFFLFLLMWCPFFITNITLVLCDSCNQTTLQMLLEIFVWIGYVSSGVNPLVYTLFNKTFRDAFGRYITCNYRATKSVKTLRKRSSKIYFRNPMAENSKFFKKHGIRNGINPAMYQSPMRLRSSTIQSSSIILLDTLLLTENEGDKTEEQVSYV
T4 sequence (P50406 whole entry): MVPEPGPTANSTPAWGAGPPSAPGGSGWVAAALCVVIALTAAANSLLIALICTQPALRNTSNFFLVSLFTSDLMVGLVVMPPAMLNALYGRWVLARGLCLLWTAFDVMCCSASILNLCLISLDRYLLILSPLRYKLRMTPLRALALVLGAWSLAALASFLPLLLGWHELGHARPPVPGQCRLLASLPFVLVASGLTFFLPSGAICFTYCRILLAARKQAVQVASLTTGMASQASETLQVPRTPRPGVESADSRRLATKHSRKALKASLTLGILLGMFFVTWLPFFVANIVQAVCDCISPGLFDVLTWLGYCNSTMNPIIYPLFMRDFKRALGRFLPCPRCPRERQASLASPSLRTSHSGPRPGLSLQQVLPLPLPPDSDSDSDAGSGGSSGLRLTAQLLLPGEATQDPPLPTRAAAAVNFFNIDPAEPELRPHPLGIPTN

With `CC1CCCN1c1nc2c(c(-c3ccc(Cl)cc3)n1)CNCCC2` (stereo not drawn) [Example 53, 4-(4-Chloro-phenyl)-2-(2-methyl-pyrrolidin-1-yl)-6,7,8,9-tetrahydro-5H-1,3,6-triaza-benzocycloheptene], the Ki in assay [1] is 1200 nM; in assay [2], 2000 nM; in assay [3] it was greater than 10000 nM.

Turning to `Clc1ccc(-c2nc(NCc3ccccc3)nc3c2CNCCC3)cc1` [Example 55, Benzyl-[4-(4-chloro-phenyl)-6,7,8,9-tetrahydro-5H-1,3,6-triaza-benzocyclohepten-2-yl]-amine], the Ki in assay [1] was greater than 10000 nM; in assay [2], 50 nM; in assay [3] it was 1100 nM.

`Clc1ccc(-c2nc(N3CCOCC3)nc3c2CNCCC3)cc1` [Example 57, 4-(4-Chloro-phenyl)-2-morpholin-4-yl-6,7,8,9-tetrahydro-5H-1,3,6-triaza-benzocycloheptene]: the Ki in assay [1] was greater than 10000 nM; in assay [2], 500 nM; in assay [4], 2290 nM; in assay [3], greater than 10000 nM.

Consider `Clc1ccc(-c2nc(N3CCOCC3)nc3c2CCNCC3)cc1` [Example 58, 4-(4-Chloro-phenyl)-2-morpholin-4-yl-6,7,8,9-tetrahydro-5H-pyrimido[4,5-d]azepine], for which the Ki in assay [1] was 30 nM; in assay [2] it was 17 nM; in assay [4], 102 nM; in assay [3], 20 nM.

In the case of `Cc1ccc(-c2nc(N3CCS(=O)(=O)CC3)nc3c2CCNCC3)cc1` [Example 64, 2-(1,1-Dioxo-1λ^6-thiomorpholin-4-yl)-4-p-tolyl-6,7,8,9-tetrahydro-5H-pyrimido[4,5-d]azepine], the Ki in assay [1] amounted to 620 nM; in assay [2], 520 nM; in assay [4], 29 nM; in assay [3], 1260 nM.

As to `Cc1ccc(-c2nc(N3CCS(=O)(=O)CC3)nc3c2CCN(C)CC3)cc1` [Example 65, 2-(1,1-Dioxo-1λ^6-thiomorpholin-4-yl)-7-methyl-4-p-tolyl-6,7,8,9-tetrahydro-5H-pyrimido[4,5-d]azepine], the Ki in assay [1] amounted to 280 nM; in assay [4], 41 nM; in assay [3], 960 nM.

Take `COc1ccc(-c2nc(N3CCCC3C)nc3c2CCNCC3)cc1Cl` (stereo not drawn) [Example 66, 4-(3-chloro-4-methoxyphenyl)-6,7,8,9-tetrahydro-2-(2-methyl-1-pyrrolidinyl)-5H-pyrimido[4,5-d]azepine]: the Ki amounted to 8 nM in assay [1], 61 nM in assay [2], 47 nM in assay [4] and 46 nM in assay [3].

Regarding `FC1CCN(c2nc3c(c(-c4ccc(Cl)c(Cl)c4)n2)CCNCC3)CC1` [Example 67, 4-(3,4-dichlorophenyl)-2-(4-fluoro-1-piperidinyl)-6,7,8,9-tetrahydro-5H-pyrimido[4,5-d]azepine], the Ki in assay [4] turned out to be 96 nM.

Regarding `FC1CCN(c2nc3c(c(-c4ccc(Cl)cc4)n2)CCNCC3)CC1` [Example 68, 4-(4-chlorophenyl)-2-(4-fluoro-1-piperidinyl)-6,7,8,9-tetrahydro-5H-pyrimido[4,5-d]azepine], the Ki came to 6 nM in assay [1], 19 nM in assay [2], 29 nM in assay [4] and 5 nM in assay [3].

Regarding `Cc1ccc(-c2nc(N3CCC(F)CC3)nc3c2CCNCC3)cc1` [Example 69, 2-(4-fluoro-1-piperidinyl)-6,7,8,9-tetrahydro-4-(4-methylphenyl)-5H-pyrimido[4,5-d]azepine], the Ki in assay [1] worked out at 5 nM; in assay [2] it was 35 nM; in assay [4], 13 nM; in assay [3] it was 5 nM.

Turning to `C[C@@H]1CCC[C@H](C)N1c1nc2c(c(-c3ccc(Cl)cc3)n1)CCNCC2` [Example 70, 4-(4-chlorophenyl)-2-[(2R,6S)-2,6-dimethyl-1-piperidinyl]-6,7,8,9-tetrahydro-5H-pyrimido[4,5-d]azepine], the Ki in assay [1] came out at 2 nM; in assay [2], 54 nM; in assay [4], 19 nM; in assay [3], 12 nM.

As for `Cc1ccc(-c2nc(N3[C@H](C)CCC[C@@H]3C)nc3c2CCNCC3)cc1` [Example 71, 2-[(2R,6S)-2,6-dimethyl-1-piperidinyl]-6,7,8,9-tetrahydro-4-(4-methylphenyl)-5H-pyrimido[4,5-d]azepine], the Ki worked out at 1 nM in assay [1], 36 nM in assay [2], 19 nM in assay [4] and 9 nM in assay [3].

Consider `Cc1ccc(-c2nc(N3CCCC3C)nc3c2CCNCC3)cc1` (stereo not drawn) [Example 72, 6,7,8,9-tetrahydro-4-(4-methylphenyl)-2-(2-methyl-1-pyrrolidinyl)-5H-pyrimido[4,5-d]azepine], for which the Ki in assay [1] was 2 nM; in assay [2] it was 28 nM; in assay [4], 32 nM; in assay [3] it was 4 nM.

`C[C@@H]1CCC[C@H](C)N1c1nc2c(c(-c3ccc(Cl)c(Cl)c3)n1)CCNCC2` [Example 73, 4-(3,4-dichlorophenyl)-2-[(2R,6S)-2,6-dimethyl-1-piperidinyl]-6,7,8,9-tetrahydro-5H-pyrimido[4,5-d]azepine]: the Ki in assay [1] came to 7 nM; in assay [2] it was 170 nM; in assay [4] it was 62 nM; in assay [3], 38 nM.

Take `Clc1ccc(-c2nc(N3CCCCC3)nc3c2CCNCC3)cc1` [Example 74, 4-(4-chlorophenyl)-6,7,8,9-tetrahydro-2-(1-piperidinyl)-5H-pyrimido[4,5-d]azepine]: the Ki came to 3 nM in assay [1], 4 nM in assay [2], 46 nM in assay [4] and 1 nM in assay [3].

Take `Cc1ccc(-c2nc(N3CCCCC3)nc3c2CCNCC3)cc1Cl` [Example 75, 4-(3-chloro-4-methylphenyl)-6,7,8,9-tetrahydro-2-(1-piperidinyl)-5H-pyrimido[4,5-d]azepine]: in assay [4], the Ki stood at 85.9 nM.

In the case of `Cc1ccc(-c2nc(N3CCC(F)CC3)nc3c2CCNCC3)cc1Cl` [Example 76, 4-(3-chloro-4-methylphenyl)-2-(4-fluoro-1-piperidinyl)-6,7,8,9-tetrahydro-5H-pyrimido[4,5-d]azepine], the inhibitory constant (Ki) amounted to 16 nM in assay [1], 38 nM in assay [2], 39 nM in assay [4] and 15 nM in assay [3].

`Cc1ccc(-c2nc(N3CCCCC3)nc3c2CCNCC3)cc1` [Example 78, 6,7,8,9-tetrahydro-4-(4-methylphenyl)-2-(1-piperidinyl)-5H-pyrimido[4,5-d]azepine]: the results for the inhibition constant (Ki) in assay [2], in assay [4] and in assay [3] were 2 nM, 14 nM and 1 nM, respectively.

Take `COc1ccc(-c2nc(N3CCC(F)CC3)nc3c2CCNCC3)cc1` [Example 81, 2-(4-fluoro-1-piperidinyl)-6,7,8,9-tetrahydro-4-(4-methoxyphenyl)-5H-pyrimido[4,5-d]azepine]: the Ki in assay [4] came to 83 nM.

In the case of `C[C@@H]1CCC[C@H](C)N1c1nc2c(c(-c3ccc4c(c3)OCCO4)n1)CCNCC2` [Example 87, 4-(2,3-dihydro-1,4-benzodioxin-6-yl)-2-[(2R,6S)-2,6-dimethyl-1-piperidinyl]-6,7,8,9-tetrahydro-5H-pyrimido[4,5-d]azepine], the Ki in assay [4] amounted to 82 nM.

In the case of `C[C@@H]1CCC[C@H](C)N1c1nc2c(c(-c3ccc(OC(F)(F)F)cc3)n1)CCNCC2` [Example 90, 2-[(2R,6S)-2,6-dimethyl-1-piperidinyl]-6,7,8,9-tetrahydro-4-[4-(trifluoromethoxy)phenyl]-5H-pyrimido[4,5-d]azepine], the Ki in assay [4] is 88 nM.

As for `CC(C)c1ccc(-c2nc(N3CCS(=O)(=O)CC3)nc3c2CCNCC3)cc1` [Example 101, 2-(1,1-Dioxo-1λ^6-thiomorpholin-4-yl)-4-(4-isopropyl-phenyl)-6,7,8,9-tetrahydro-5H-pyrimido[4,5-d]azepine], the inhibition constant (Ki) in assay [1] turned out to be 650 nM; in assay [4] it was 92 nM; in assay [3] it was 3780 nM.

For the molecule `c1ccc2ncc(-c3nc(N4CCOCC4)nc4c3CCNCC4)cc2c1` [Example 102, 2-Morpholin-4-yl-4-quinolin-3-yl-6,7,8,9-tetrahydro-5H-pyrimido[4,5-d]azepine], the Ki worked out at 300 nM in assay [1], 70 nM in assay [4] and 360 nM in assay [3].

For the molecule `FC1(F)CCN(c2nc3c(c(-c4cnc5ccccc5c4)n2)CCNCC3)CC1` [Example 103, 2-(4,4-difluoro-1-piperidinyl)-6,7,8,9-tetrahydro-4-(3-quinolinyl)-5H-pyrimido[4,5-d]azepine], in assay [4], the Ki amounted to 42 nM.
